Experiment: Controlled release soil test (irrigated soil burial test)
Type: physicochemical
Description: To measure the relative solubilities of the products in soil, an irrigated soil burial test was devised such that granules could be retrieved for measurement of their nitrogen content. The following is a description of the test.
Procedure for Controlled Release Soil Test
1. Screen the sample to obtain −6+7 Tyler mesh granules for the test.
4. Place 300 g of potting soil with a 40% moisture content into the container and record the weight.
7. Spread 5 grams of −6+7 Tyler mesh granules over the screen in a single layer and record the weight.
13. Mist 4 g of water into each container and immediately place the lid on container and seal.
14. After the fertilizer granules have been submerged in a humid soil environment for the allotted time (9 hours, 24 hours, and 3 days), the 150 g of soil is removed from the container.
18. Place the fertilizer granules in a laboratory oven to dry at low temperature (50° C.) for 13 hours.
20. Place the dry fertilizer sample into a 125 mL plastic sample bottle containing 20 g of de-ionized water.
21. Allow the sample to dissolve for 3 hours.
22. Place approximately 1 ml aliquot of the sample solution onto the sample stage of a refractometer(e.g., Abbe Refractometer).
23. Record the refractive index and temperature of the solution.
24. Calculate the percent urea retained from the original fertilizer sample.

time in which particles went into solution, soil test: ≤ 9 h
SMILES: NC(N)=O [plain urea, urea]
